{"source": "patent US20020090642A1", "about": "“METHODS FOR DETERMINING THE PROGNOSIS OF BREAST CANCER USING ANTIBODIES SPECIFIC FOR THYMIDYLATE SYNTHASE” (priority 1995, published 2002)", "origin": "cited, not measured here", "test_system": "TS", "conditions": "24 hours post-fluorouracil therapy, tumor biopsy samples", "data": [{"compound": "O=c1[nH]cc(F)c(=O)[nH]1", "note": "[fluorouracil]", "values": [{"measurement": "increase in TS", "value": "2- to 6 fold"}]}]}
